Test results: US10316313B2, “Mesoporous catalysts of magnetic nanoparticles and free-radical-producing enzymes, and methods of use” (Cornell University, priority 2011, dated 2019)
Entries after “also recorded” stand apart in the source; their conditions may differ.

What was measured:
[1] = target: T1, Horseradish Peroxidase (HRP, E.C. 1.11.1.7, type VI-A) entrapped in M90 magnetite nanoparticle clusters (M90-BNC) (Armoracia rusticana, UniProt P00433); experiment: Phenol/AAP assay, H2O2 substrate inhibition model, M90-BNC; format: biochemical
T1 construct: purchased
T1 sequence (P00433 31-338 limits assumed): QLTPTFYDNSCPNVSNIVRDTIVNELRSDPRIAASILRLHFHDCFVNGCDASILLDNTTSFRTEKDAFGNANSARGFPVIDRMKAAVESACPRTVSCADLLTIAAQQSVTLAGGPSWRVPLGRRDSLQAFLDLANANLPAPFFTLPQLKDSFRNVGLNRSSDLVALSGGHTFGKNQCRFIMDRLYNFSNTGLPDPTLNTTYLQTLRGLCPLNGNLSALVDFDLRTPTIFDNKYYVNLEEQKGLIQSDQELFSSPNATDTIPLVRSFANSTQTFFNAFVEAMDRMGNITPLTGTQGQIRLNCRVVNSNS
Excerpt: (§1) The enzymes used in this study were Horseradish Peroxidase (HRP, E.C. 1.11.1.7, type VI-A), Lignin Peroxidase (LiP, E.C. 1.11.1.14), Manganese Peroxidase (MnP; E.C. 1.11.1.13) Versatile Peroxidase (syn. hybrid peroxidase, manganese-lignin peroxidase: VeP EC 1.11.1.16), and laccase. All enzymes used herein were obtained from commercial sources. […] High activity forms were obtained by further purification by FPLC (AKTA Explorer, GE Bioscience) using an anionic exchange column (Resource Q, GE Bioscience). Laccase was used without further purification. Protein signal was monitored at 280 nm and the heme signal at 405 nm. For each enzyme, the fractions with a RZ above 1 were pulled together, concentrated and aliquoted. Phenol, homovanillic acid, veratryl alcohol, methoxylphenol, 4-aminoantipyrine (AAP), glucose (the foregoing being at 98% purity), sodium phosphate buffer (PBS) of pH 7.4 and 67 mM, magnetite microsphere powder, manganese sulfate, hydrogen peroxide, FeCl3.6H2O, and FeCl2.4H2O, O-phosphoethydiamine, gold tetrachlorohydrate, and malonate and tartrate disodium salts were obtained from commercial sources.
(§2) Magnetite nanoparticles were synthesized by co-precipitation of Fe^2+ and Fe^3+ under alkaline conditions in a bubbling nitrogen atmosphere at 25° C. (M25) or 90° C. (M90). An acidic solution (25 ml) of the iron salts (2 g of FeCl2.4H2O and 5.2 g of FeCl3.6H2O) was added dropwise to NaOH (250 ml, 1.5 M) under constant stirring. Non-oxidizing conditions were achieved by bubbling all solutions with nitrogen for 15 minutes prior to reaction. The instantaneous black precipitation of Fe3O4 was captured with a neodymium magnet, washed, and neutralized, and kept in distilled water until further use.
(§3) All BNCs were formed with either M90 or M25 magnetite nanoparticles, gold-coated or not. The BNCs were formed with either Horseradish peroxidase, Lignin Peroxidase, Manganese Peroxidase or Versatile Peroxidase. Typical BNC synthesis required the MNPs to be initially monodispersed (i.e., individualized and non-aggregated MNPs). MNPs were sonicated in an ultrasonic bath for 20 minutes at room temperature and used immediately to form the BNCs. In preliminary experiments, the effects of buffer composition, buffer strength, and incubation time were investigated to measure their influence on the formation of the BNCs and the activity of the enzymes. […]
(§4) The peroxidase activity of native HRP and BNC was monitored using the chromogenic phenol/AAP assay that generates phenoxy radicals that readily react with […] to form the pink-colored quinoneimine dye. An automated plate-reader (Synergy 4, Biotek) with injection capabilities and temperature-controlled chamber was used to record the absorbance of the solution at 510 nm in 96-well plates (4 replicates) for 30 minutes. […]

[2] = target: T2, Horseradish Peroxidase (HRP, E.C. 1.11.1.7, type VI-A) entrapped in M25 magnetite nanoparticle clusters (M25-BNC) (Armoracia rusticana, UniProt P00433); experiment: Phenol/AAP assay, H2O2 substrate inhibition model, M25-BNC; format: biochemical
T2 construct: purchased
T2 sequence (P00433 31-338 limits assumed): T1 sequence (P00433 31-338 limits assumed)
Excerpt: as §1, §2, §3, §4

[3] = compared to the free enzyme at the same concentration

`OO` [H2O2, hydrogen peroxide] was tested, and the Vmax ([1]; compared to free HRP) was “similar; also recorded: No difference in Vmax”, the kcat ([1]; compared to free HRP) was “also increased for lower concentrations of enzymes” and the “Ki (H2O2 substrate inhibition constant)” value ([1]; in words, compared to free HRP) was “drastically increased”. The “Ki (H2O2 substrate inhibition constant), times greater than the free HRP” value ([1]; ratio to free HRP) was “about 10 times”, the “Ki (H2O2 substrate inhibition constant)” value ([2]; compared to free HRP) was “in the same range than the free HRP; also recorded: in the same range, if not lower, than for the free enzymes” and the Km ([2]; compared to free HRP) was “higher Km; also recorded: increased in the case of BNCs formed with M25”. For the same molecule, the Vmax [2, 3] was “two to three times greater than the free enzyme; also recorded: increased in the case of BNCs formed with M25 compared to the Vmax of the free enzymes” and the kcat [2, 3] was “two to three times greater than the free enzyme; also recorded: drastically increased in the case of BNCs formed with M25 compared to the free enzyme”.
